Reference: patent publication US8759366B2, “Aminopyrimidines as SYK inhibitors” (Merck Sharp & Dohme Corp., priority 2009, dated 2014)

target: rhSYK (Homo sapiens (Human), UniProt P43405); conditions: read-out: rhSYK activity

SMILES | IC50
Cc1cc(Nc2nccc(C(F)(F)F)n2)cc(-c2cncs2)c1 [Intermediate 4, N-[3-methyl-5-(1,3-thiazol-5-yl)phenyl]-4-(trifluoromethyl)pyrimidin-2-amine] | < 100 nM
FC(F)(F)c1ccnc(Nc2cccc(-c3cncs3)c2)n1 [Intermediate 7, N-[3-(1,3-thiazol-5-yl)phenyl]-4-(trifluoromethyl)pyrimidin-2-amine] | 100 to 1000 nM
FC(F)(F)c1ccnc(Nc2cc(Br)cc(-c3cncs3)c2)n1 [Intermediate 11, N-[3-bromo-5-(1,3-thiazol-5-yl)phenyl]-4-(trifluoromethyl)pyrimidin-2-amine] | 100 to 1000 nM
Cc1cc(Nc2ncc(Cl)cn2)cc(-c2cncs2)c1 [Intermediate 48, 5-Chloro-N-[3-methyl-5-(1,3-thiazol-5-yl)phenyl]pyrimidin-2-amine] | 100 to 1000 nM
Cc1cc(Nc2ncc(F)c(C)n2)cc(-c2cncs2)c1 [Intermediate 49, 5-Fluoro-4-methyl-N-[3-methyl-5-(1,3-thiazol-5-yl)phenyl]pyrimidin-2-amine] | < 100 nM
Cc1cc(Nc2ncc(F)cn2)cc(-c2cncs2)c1 [Intermediate 50, 5-Fluoro-N-[3-methyl-5-(1,3-thiazol-5-yl)phenyl]pyrimidin-2-amine] | 100 to 1000 nM
CCOC(=O)C1CCC(O)(c2ncc(-c3cc(C)cc(N(C(=O)OC(C)(C)C)c4nccc(C(F)(F)F)n4)c3)s2)CC1 (centres unmarked) [Intermediate 119, Ethyl 4-[5-(3-{(tert-butoxycarbonyl)[4-(trifluoromethyl)pyrimidin-2-yl]amino}-5-methylphenyl)-1,3-thiazol-2-yl]-4-hydroxycyclohexanecarboxylate] | 1000 to 10000 nM
Fc1ccc(Nc2nccc(C(F)(F)F)n2)cc1Br [N-(3-bromo-4-fluorophenyl)-4-(trifluoromethyl)pyrimidin-2-amine] | 1000 to 10000 nM
FC(F)(F)c1cc(Br)cc(Nc2nccc(C(F)(F)F)n2)c1 [N-[3-bromo-5-(trifluoromethyl)phenyl]-4-(trifluoromethyl)pyrimidin-2-amine] | 1000 to 10000 nM
Cc1cc(Nc2nccc(C(F)(F)F)n2)cc(-c2cnc(C3(C(N)=O)CCC(N)CC3)s2)c1 (stereo not drawn) [molecule A, cis-4-amino-1-[5-(3-methyl-5-{[4-(trifluoromethyl)pyrimidin-2-yl]amino}phenyl)-1,3-thiazol-2-yl]cyclohexanecarboxamide] | < 100 nM

target: recombinant human SYK (GST-hSYK fusion protein) (Homo sapiens (Human), UniProt P43405); conditions: read-out: rhSYK Activity; Table 33-A
Excerpt: Homogeneous Time-Resolved Fluorescence (HTRF) Assay for the Recombinant Human SYK Enzyme:

SMILES | IC50
Cc1cc(Nc2ncc(F)c(C3CC3)n2)cc(-c2cnc(C3(O)CCC(C(=O)O)CC3)s2)c1 (centres unmarked) [33A-1] | < 100 nM
Cc1cc(Nc2ncc(F)c(C3CC3)n2)cc(-c2cnc(C3(O)CCC(C(=O)O)CC3)s2)c1 (centres unmarked) [33A-2] | < 100 nM
Cc1cc(Nc2ncc(F)c(C)n2)cc(-c2cnc(C3(O)CCC(C(=O)O)C(C)(C)C3C)s2)c1 (centres unmarked) [33A-74] | < 100 nM

Further lines, results first:

IC50 | SMILES
< 100 nM | CCOC(=O)C1CCC(O)(c2ncc(-c3cc(C)cc(Nc4nccc(C(F)(F)F)n4)c3)s2)CC1 (centres unmarked) [33A-5]
< 100 nM | CCOC(=O)C1CCC(O)(c2ncc(-c3cc(C)cc(Nc4nccc(C(F)(F)F)n4)c3)s2)CC1 (centres unmarked) [33A-7]
< 100 nM | CCOC(=O)C1(C)CCC(O)(c2ncc(-c3cc(C)cc(Nc4nccc(C(F)(F)F)n4)c3)s2)CC1 (centres unmarked) [33A-10]
< 100 nM | Cc1cc(Nc2nccc(C(F)(F)F)n2)cc(-c2cnc(C3(O)CCC(c4ccc(C(=O)O)cc4)CC3)s2)c1 (centres unmarked) [33A-17]

same assay, conditions: read-out: rhSYK Activity; Table 33B

SMILES | IC50
Cc1cc(Nc2nccc(C)n2)cc(-c2cnc(C3(O)CCC(C(=O)O)C(C)C3)s2)c1 (single isomer, unassigned) [Example 33B-33] | < 100 nM
CCC1C(C)C(C(=O)O)CCC1(O)c1ncc(-c2cc(C)cc(Nc3nccc(C(F)(F)F)n3)c2)s1 (single isomer, unassigned) [Example 33B-41] | < 100 nM

The next lines start with the values.

IC50 | SMILES
< 100 nM | Cc1cc(Nc2nccc(C(F)(F)F)n2)cc(-c2cnc(C3(O)CC(C(=O)O)C(C)(C)C3)s2)c1 (single isomer, unassigned) [Example 33B-4]
< 100 nM | Cc1cc(Nc2nccc(C(F)(F)F)n2)cc(-c2cnc(C3(O)CC(C(=O)O)C(C)(C)C3)s2)c1 (single isomer, unassigned) [Example 33B-5]
< 100 nM | Cc1cc(Nc2nccc(C(F)(F)F)n2)cc(-c2cnc(C3(O)CC(C(=O)O)C(C)(C)C3)s2)c1 (single isomer, unassigned) [Example 33B-6]
< 100 nM | Cc1cc(Nc2nccc(C(F)(F)F)n2)cc(-c2cnc(C3(O)CC(C(=O)O)C(C)(C)C3)s2)c1 (single isomer, unassigned) [Example 33B-7]
< 100 nM | Cc1cc(Nc2nccc(C(F)(F)F)n2)cc(-c2cnc(C3(O)CCCC(c4ccc(C(=O)O)cc4)C3)s2)c1 (single isomer, unassigned) [Example 33B-15]
< 100 nM | Cc1cc(Nc2nccc(C(F)(F)F)n2)cc(-c2cnc(C3(O)CCCC(c4ccc(C(=O)O)cc4)C3)s2)c1 (single isomer, unassigned) [Example 33B-16]
< 100 nM | Cc1cc(Nc2nccc(C(F)(F)F)n2)cc(-c2cnc(C3(O)CCC(C(=O)O)C(C(C)C)C3)s2)c1 (single isomer, unassigned) [Example 33B-22]
< 100 nM | Cc1cc(Nc2nccc(C(F)(F)F)n2)cc(-c2cnc(C3(O)CCC(C(=O)O)C(C(C)C)C3)s2)c1 (single isomer, unassigned) [Example 33B-23]
< 100 nM | Cc1cc(Nc2nccc(C(F)(F)F)n2)cc(-c2cnc(C3(O)CCC(C(=O)O)C(C)C3C)s2)c1 (single isomer, unassigned) [Example 33B-38]
< 100 nM | Cc1cc(Nc2nccc(C(F)(F)F)n2)cc(-c2cnc(C3(O)CCC(C(=O)O)C(C)C3C)s2)c1 (single isomer, unassigned) [Example 33B-39]
< 100 nM | CCC1C(C)C(C(=O)O)CCC1(O)c1ncc(-c2cc(C)cc(Nc3nccc(C(F)(F)F)n3)c2)s1 (single isomer, unassigned) [Example 33B-42]

same assay, conditions: read-out: rhSYK Activity; Table 113C

SMILES | IC50
Cc1cc(Nc2nccc(C(C)F)n2)cc(-c2cnc(C3(O)CCNC(=O)CC3)s2)c1 (single isomer, unassigned) [113C-3] | < 100 nM
Cc1cc(Nc2nccc(C(C)F)n2)cc(-c2cnc(C3(O)CCNC(=O)CC3)s2)c1 (single isomer, unassigned) [113C-4] | < 100 nM
COc1nc(Nc2cc(C)cc(-c3cnc(C4(O)CCCNCC4)s3)c2)ncc1Cl (single isomer, unassigned) [113C-15] | < 100 nM
COc1nc(Nc2cc(C)cc(-c3cnc(C4(O)CCCNCC4)s3)c2)ncc1Cl (single isomer, unassigned) [113C-16] | < 100 nM
Cc1cc(Nc2nccc(C3CC3)n2)cc(-c2cnc(C3(O)CCCN(C(=O)OC(C)(C)C)CC3)s2)c1 (single isomer, unassigned) [113C-17] | < 100 nM
Cc1cc(Nc2nccc(C3CC3)n2)cc(-c2cnc(C3(O)CCCN(C(=O)OC(C)(C)C)CC3)s2)c1 (single isomer, unassigned) [113C-18] | 100 to 1000 nM
Cc1cc(Nc2nccc(C(C)C)n2)cc(-c2cnc(C3(O)CCCN(C(=O)OC(C)(C)C)CC3)s2)c1 (single isomer, unassigned) [113C-20] | 100 to 1000 nM
Cc1cc(Nc2nccc(C(C)C)n2)cc(-c2cnc(C3(O)CCCN(C(=O)OC(C)(C)C)CC3)s2)c1 (single isomer, unassigned) [113C-21] | 1000 to 10000 nM
Cc1cc(Nc2ncc(F)c(C)n2)cc(-c2cnc(C3(O)CCNC(=O)CC3)s2)c1 (centres unmarked) [113C-1] | < 100 nM
Cc1cc(Nc2nccc(C3CC3)n2)cc(-c2cnc(C3(O)CCNC(=O)CC3)s2)c1 (centres unmarked) [113C-2] | < 100 nM
Cc1cc(Nc2ncc(Cl)c(C)n2)cc(-c2cnc(C3(O)CCNC(=O)CC3)s2)c1 (centres unmarked) [113C-5] | < 100 nM
COc1nc(Nc2cc(C)cc(-c3cnc(C4(O)CCNC(=O)CC4)s3)c2)ncc1F (centres unmarked) [113C-6] | < 100 nM
Cc1cc(Nc2nccc(C(F)F)n2)cc(-c2cnc(C3(O)CCNC(=O)CC3)s2)c1 (centres unmarked) [113C-7] | < 100 nM
O=C1CCC(O)(c2ncc(-c3cccc(Nc4nccc(C(F)(F)F)n4)c3)s2)CCN1 (centres unmarked) [113C-8] | < 100 nM
Cc1cc(Nc2nccc(C(C)(C)C)n2)cc(-c2cnc(C3(O)CCNC(=O)CC3)s2)c1 (centres unmarked) [113C-9] | < 100 nM
Cc1cc(Nc2nccc(OC(C)C)n2)cc(-c2cnc(C3(O)CCNC(=O)CC3)s2)c1 (centres unmarked) [113C-10] | < 100 nM
COc1nc(Nc2cc(C)cc(-c3cnc(C4(O)CCNC(=O)CC4)s3)c2)ncc1Cl (centres unmarked) [113C-11] | < 100 nM

same assay, conditions: read-out: rhSYK Activity; Table 113D, lower part (Structure)

SMILES | IC50
Cc1cc(Nc2nccc(C(F)(F)F)n2)cc(-c2cnc(C3(O)CCC(C(=O)O)OC3)s2)c1 (single isomer, unassigned) [Example 113D-11] | < 100 nM
Cc1cc(Nc2nccc(C(F)(F)F)n2)cc(-c2cnc(C3(O)CCC(C(=O)O)OC3)s2)c1 (single isomer, unassigned) [Example 113D-12] | < 100 nM

same assay, conditions: read-out: rhSYK Activity; recombinant human SYK, HTRF assay; class symbols

SMILES | IC50
COc1nc(Nc2cc(C)cc(-c3cnc(C4(O)CCCN(C(=O)c5cnn[nH]5)CC4)s3)c2)ncc1Cl (single isomer, unassigned) [Example 54D-32] | < 100 nM
COc1nc(Nc2cc(C)cc(-c3cnc(C4(O)CCCN(C(=O)c5cnn[nH]5)CC4)s3)c2)ncc1Cl (single isomer, unassigned) [Example 54D-33] | < 100 nM

Now from value to molecule:

IC50 | SMILES
< 100 nM | Cc1cc(Nc2nccc(C(F)(F)F)n2)cc(-c2cnc(C3(O)CCCN(C(=O)CCn4cncn4)CC3)s2)c1 (racemic) [Example 54D-89]
< 100 nM | Cc1cc(Nc2nccc(C(F)(F)F)n2)cc(-c2cnc(C3(O)CCCN(C(=O)c4ccc(O)c(F)c4)CC3)s2)c1 (racemic) [Example 54D-103]
< 100 nM | Cc1cc(Nc2nccc(C(F)(F)F)n2)cc(-c2cnc(C3(O)CCCN(CC(F)(F)F)CC3)s2)c1 (single isomer, unassigned) [Example 54A-85]
< 100 nM | Cc1cc(Nc2nccc(C(F)(F)F)n2)cc(-c2cnc(C3(O)CCCN(CC(F)(F)F)CC3)s2)c1 (single isomer, unassigned) [Example 54A-86]

same assay, conditions: read-out: rhSYK activity

SMILES | IC50
Cc1cc(Nc2nccc(C(F)(F)F)n2)cc(-c2cnc(C3(O)CCC(NC(=O)[C@H](C)O)CC3)s2)c1 (stereo in doubt) [Example 54E-2] | < 100 nM
